Laboratory results published in patent US8481534B2, “5- and 6-membered heterocyclic compounds” (EnVivo Pharmaceuticals, Inc., priority 2008, dated 2013).

Key:
Human PDE10A1 = Human PDE10A1 (Homo sapiens, UniProt Q9Y233); assay: hPDE10A1 enzyme inhibition ([3H]-cAMP hydrolysis, scintillation counting); assay type: biochemical; conditions: Human PDE10A1, [3H]-cAMP substrate, 20 minutes at 37° C.; read-out: hPDE10A1 IC50 Band
Procedure: 50 μl samples of serially diluted Human PDE10A1 enzyme were incubated with 50 μl of [^3H]-cAMP for 20 minutes (at 37° C.). Reactions were carried out in Greiner 96 deep well 1 ml master-block. The enzyme was diluted in 20 mM Tris HCl pH7.4 and [^3H]-cAMP was diluted in 10 mM MgCl2, 40 mM Tris.HCl pH 7.4. The reaction was terminated by denaturing the PDE enzyme (at 70° C.) after which [^3H]-5′-AMP was converted to [^3H]-adenosine by adding 25 μl snake venom nucleotidase and incubating for 10 minutes (at 37° C.). Adenosine, being neutral, was separated from charged cAMP or AMP by the addition of 200 μl Dowex resin. Samples were shaken for 20 minutes then centrifuged for 3 minutes at 2,500 r.p.m. 50 μl of supernatant was removed and added to 200 μl of MicroScint-20 in white plates (Greiner 96-well Optiplate) and shaken for 30 minutes before reading on Perkin Elmer TopCount Scintillation Counter.
To check inhibition profile 11 μl of serially diluted inhibitor was added to 50 μl of [^3H]-cAMP and 50 μl of diluted Human PDE10A1 and assay was carried out as in the enzyme activity assay. Data was analysed using Prism software (GraphPad Inc).

[1] = test system: apomorphine induced stereotypes; conditions: rats; cited from earlier work
[2] = test system: haloperidol induced catalepsy; conditions: rats; cited from earlier work
[3] = test system: rat brain dopamine levels; conditions: rats; cited from earlier work

Chain of Human PDE10A1 (Q9Y233 1-779 isoform Q9Y233-1): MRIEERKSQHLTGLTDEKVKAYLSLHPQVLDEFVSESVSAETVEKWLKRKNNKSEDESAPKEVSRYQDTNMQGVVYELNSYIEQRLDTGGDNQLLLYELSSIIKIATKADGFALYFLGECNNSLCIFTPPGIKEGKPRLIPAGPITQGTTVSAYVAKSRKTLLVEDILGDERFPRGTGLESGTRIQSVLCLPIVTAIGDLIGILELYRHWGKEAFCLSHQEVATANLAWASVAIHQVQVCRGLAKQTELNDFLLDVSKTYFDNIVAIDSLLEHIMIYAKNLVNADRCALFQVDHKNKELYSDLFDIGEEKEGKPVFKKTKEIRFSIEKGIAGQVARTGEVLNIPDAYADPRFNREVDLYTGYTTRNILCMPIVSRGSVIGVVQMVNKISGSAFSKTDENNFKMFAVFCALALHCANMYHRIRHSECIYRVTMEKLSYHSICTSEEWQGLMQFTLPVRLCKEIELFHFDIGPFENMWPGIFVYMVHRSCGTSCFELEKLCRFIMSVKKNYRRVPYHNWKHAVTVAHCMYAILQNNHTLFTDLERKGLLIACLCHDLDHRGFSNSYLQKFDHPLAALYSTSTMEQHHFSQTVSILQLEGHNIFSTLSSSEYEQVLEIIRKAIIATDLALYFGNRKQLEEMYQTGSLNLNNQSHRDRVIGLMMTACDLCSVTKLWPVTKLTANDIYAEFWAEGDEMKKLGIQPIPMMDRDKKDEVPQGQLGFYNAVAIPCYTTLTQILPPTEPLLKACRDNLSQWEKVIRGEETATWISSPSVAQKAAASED

Structure (SMILES)	IC50 (Human PDE10A1) [nM]	also measured
COc1ccc(Cc2nccc3cc(OC)c(OC)cc23)cc1OC [papaverine]		apomorphine induced stereotypes [1]: reduces; haloperidol induced catalepsy [2]: increases; rat brain dopamine levels [3]: reduces
COc1ccc(C2=C(c3ccc(OCc4ccc5ccccc5n4)cc3Cl)COC2=O)cc1 [Example 424, 4-(2-chloro-4-(quinolin-2-ylmethoxy)phenyl)-3-(4-methoxyphenyl)furan-2(5H)-one]	> 50	
O=C1OCC(c2ccncc2)=C1c1ccc(OCc2ccc3ccccc3n2)c(Cl)c1 [Example 1099, 3-(3-chloro-4-(quinolin-2-ylmethoxy)phenyl)-4-(pyridin-4-yl)furan-2(5H)-one]	> 50	
O=C1OCC(N2CCOCC2)=C1c1ccc(OCc2ccc3ccccc3n2)cc1 [Example 1085, 4-Morpholino-3-(4-(quinolin-2-ylmethoxy)phenyl)furan-2(5H)-one]	> 50	
COc1ccc(C2=C(c3ccc(OCc4cccc(C)n4)cc3)COC2=O)cc1 [Example 1095, 3-(4-methoxyphenyl)-4-(4-((6-methylpyridin-2-yl)methoxy)phenyl)furan-2(5H)-one]	> 50	
COc1ccc(C2=C(c3ccc(OCc4ccc5ccccc5n4)cc3)C(=O)OC2)cc1C#N [Example 55, 2-Methoxy-5-(5-oxo-4-(4-(quinolin-2-ylmethoxy)phenyl)-2,5-dihydrofuran-3-yl)benzonitrile]	≤ 50	
COc1ccc(C2=C(c3ccc(OCc4ccc5ccccc5n4)cc3)C(=O)N(C)C2)cc1 [Example 125, 4-(4-Methoxyphenyl)-1-methyl-3-(4-(quinolin-2-ylmethoxy)phenyl)-1H-pyrrol-2(5H)-one]	≤ 50	
COc1ccc(C2=C(c3ccc(OCc4ccc5ccccc5n4)cc3)C(=O)OC2)cc1F [Example 53, 4-(3-fluoro-4-methoxyphenyl)-3-(4-(quinolin-2-ylmethoxy)phenyl)furan-2(5H)-one]	≤ 50	
O=C1OCC(c2cccnc2)=C1c1ccc(OCc2ccc3ccccc3n2)cc1 [Example 1098, 4-(Pyridin-3-yl)-3-(4-(quinolin-2-ylmethoxy)phenyl)furan-2(5H)-one]	> 50	
O=c1[nH][nH]c(-c2ccncc2)c1-c1ccc(OCc2ccc3ccccc3n2)cc1 [Example 1096, 5-(Pyridin-4-yl)-4-(4-(quinolin-2-ylmethoxy)phenyl)-1H-pyrazol-3(2H)-one]	> 50	
Cn1[nH]c(-c2ccncc2)c(-c2ccc(OCc3ccc4ccccc4n3)cc2)c1=O [Example 1097, 2-Methyl-5-(pyridin-4-yl)-4-(4-(quinolin-2-ylmethoxy)phenyl)-1H-pyrazol-3(2H)-one]	> 50	
O=c1o[nH]c(-c2ccncc2)c1-c1ccc(OCc2ccc3ccccc3n2)cc1 [Example 1094, 3-(Pyridin-4-yl)-4-(4-(quinolin-2-ylmethoxy)phenyl)isoxazol-5(2H)-one]	≤ 50	

The next lines start with results.

IC50 (Human PDE10A1) [nM]	Structure (SMILES)	also measured
≤ 50	COc1ccc(C2=C(c3ccc(OCc4ccc5ccccc5n4)cc3)C(=O)OC2)cc1 [Example 59, 4-(4-Methoxyphenyl)-3-(4-(quinolin-2-ylmethoxy)phenyl)furan-2(5H)-one]	
≤ 50	O=C1OCC(c2ccncc2)=C1c1ccc(OCc2ccc3ccccc3n2)cc1 [Example 37, 4-(Pyridin-4-yl)-3-(4-(quinolin-2-ylmethoxy)phenyl)furan-2(5H)-one]	
≤ 50	COc1ccc(C2=C(c3ccc(OCc4ccc5ccccc5n4)cc3)C(=O)OC2)cc1Cl [Example 54, 4-(3-Chloro-4-methoxyphenyl)-3-(4-(quinolin-2-ylmethoxy)phenyl)furan-2(5H)-one]	
≤ 50	CN1CC(c2ccncc2)=C(c2ccc(OCc3ccc4ccccc4n3)cc2)C1=O [Example 94, 1-Methyl-4-(pyridin-4-yl)-3-(4-(quinolin-2-ylmethoxy)phenyl)-1H-pyrrol-2(5H)-one]	
≤ 50	COc1ccc(C2=C(c3ccc(OCc4ccc5ccccc5n4)cc3)COC2=O)cc1 [Example 14]	
